Results reported in PubChem BioAssay AID2060503 (Molecular Pharmacology Branch, DTP, NCI, 2025).

System: 817829-284-R-J1-PDC complex spheroids, viability
Test: Anticancer human tumor 817829-284-R-J1-PDC patient-derived colon adenocarcinoma cell line growth inhibition [GQUAD]
Conditions: for IC50: curve of first compound; for viability, T/C: stronger effect = lower value
Procedure, shortened: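 Multi-cell-type spheroids of tumor cells with HUVEC and mesenchymal stem cells, treated with drug combinations. Concentrations descend in half-log steps from near clinical Cmax, or from 10 microM where Cmax is unknown; viability read-out.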

[1] = second compound 0.0316 µM, first compound 0.0316 µM
[2] = second compound 0.0316 µM, first compound 0.1 µM
[3] = second compound 0.0316 µM, first compound 0.316 µM
[4] = second compound 0.0316 µM, first compound 1 µM
[5] = second compound 0.0316 µM, first compound 3.16 µM
[6] = second compound 0.0316 µM, first compound 10 µM
[7] = second compound 0.1 µM, first compound 0.0316 µM
[8] = second compound 0.1 µM, first compound 0.1 µM
[9] = second compound 0.1 µM, first compound 0.316 µM
[10] = second compound 0.1 µM, first compound 1 µM
[11] = second compound 0.1 µM, first compound 3.16 µM
[12] = second compound 0.1 µM, first compound 10 µM
[13] = second compound 0.316 µM, first compound 0.0316 µM
[14] = second compound 0.316 µM, first compound 0.1 µM
[15] = second compound 0.316 µM, first compound 0.316 µM
[16] = second compound 0.316 µM, first compound 1 µM
[17] = second compound 0.316 µM, first compound 3.16 µM
[18] = second compound 0.316 µM, first compound 10 µM
[19] = second compound 1 µM, first compound 0.0316 µM
[20] = second compound 1 µM, first compound 0.1 µM
[21] = second compound 1 µM, first compound 0.316 µM
[22] = second compound 1 µM, first compound 1 µM
[23] = second compound 1 µM, first compound 3.16 µM
[24] = second compound 1 µM, first compound 10 µM
[25] = second compound 3.16 µM, first compound 0.0316 µM
[26] = second compound 3.16 µM, first compound 0.1 µM
[27] = second compound 3.16 µM, first compound 0.316 µM
[28] = second compound 3.16 µM, first compound 1 µM
[29] = second compound 3.16 µM, first compound 3.16 µM
[30] = second compound 3.16 µM, first compound 10 µM
[31] = second compound 10 µM, first compound 0.0316 µM
[32] = second compound 10 µM, first compound 0.1 µM
[33] = second compound 10 µM, first compound 0.316 µM
[34] = second compound 10 µM, first compound 1 µM
[35] = second compound 10 µM, first compound 3.16 µM
[36] = second compound 10 µM, first compound 10 µM
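Also: spheroids exposed to agents for 7 days before readout.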
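For viability, T/C in this document: percent viability relative to DMSO vehicle control taken as 100%.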

## C=CCn1c(=O)c2cnc(Nc3ccc(N4CCN(C)CC4)cc3)nc2n1-c1cccc(C(C)(C)O)n1 + CN(C)c1ccc(Nc2c3ccc(NC(=O)CCN4CCCC4)cc3nc3cc(NC(=O)CCN4CCCC4)ccc23)cc1
Second compound 0.0316 µM
  IC50: 0.24 µM
Second compound 0.1 µM
  IC50: 0.22 µM
Second compound 0.316 µM
  IC50: 0.263 µM
Second compound 1 µM
  IC50: 0.231 µM
Second compound 3.16 µM
  IC50: 0.214 µM
Second compound 10 µM
  IC50: 0.19 µM
[1]
  viability, T/C: 99.2%
[2]
  viability, T/C: 106%
[3]
  viability, T/C: 33.4%
[4]
  viability, T/C: 9.73%
[5]
  viability, T/C: 6.22%
[6]
  viability, T/C: 6.74%
[7]
  viability, T/C: 88.5%
[8]
  viability, T/C: 101%
[9]
  viability, T/C: 29.5%
[10]
  viability, T/C: 9.11%
[11]
  viability, T/C: 7.3%
[12]
  viability, T/C: 5.57%
[13]
  viability, T/C: 102%
[14]
  viability, T/C: 109%
[15]
  viability, T/C: 39.2%
[16]
  viability, T/C: 9.34%
[17]
  viability, T/C: 7.03%
[18]
  viability, T/C: 5.88%
[19]
  viability, T/C: 99.8%
[20]
  viability, T/C: 102%
[21]
  viability, T/C: 30.9%
[22]
  viability, T/C: 9.37%
[23]
  viability, T/C: 6.93%
[24]
  viability, T/C: 6.42%
[25]
  viability, T/C: 89.3%
[26]
  viability, T/C: 102%
[27]
  viability, T/C: 26.4%
[28]
  viability, T/C: 10.9%
[29]
  viability, T/C: 7.22%
[30]
  viability, T/C: 5.95%
[31]
  viability, T/C: 104%
[32]
  viability, T/C: 82.4%
[33]
  viability, T/C: 24%
[34]
  viability, T/C: 11.2%
[35]
  viability, T/C: 7.11%
[36]
  viability, T/C: 2.4%

## Cn1ncnc1[C@H]1c2n[nH]c(=O)c3cc(F)cc(c23)N[C@@H]1c1ccc(F)cc1 + Cc1cnc(CNC(=O)c2c(=O)c3ccc(N4CCCN(C)CC4)nc3n3c2sc2ccccc23)cn1
Second compound 0.0316 µM
  IC50: 0.0273 µM
Second compound 0.1 µM
  IC50: < 0.000999 µM
Second compound 0.316 µM
  IC50: < 0.000999 µM
Second compound 1 µM
  IC50: < 0.000999 µM
Second compound 3.16 µM
  IC50: < 0.000999 µM
Second compound 10 µM
  IC50: < 0.000999 µM
Second compound 0.0316 µM, first compound 0.000999 µM
  viability, T/C: 84.5%
Second compound 0.0316 µM, first compound 0.00316 µM
  viability, T/C: 70.5%
Second compound 0.0316 µM, first compound 0.00999 µM
  viability, T/C: 58.1%
[1]
  viability, T/C: 48.8%
Second compound 0.0316 µM, first compound 0.0999 µM
  viability, T/C: 43.6%
[3]
  viability, T/C: 42.4%
Second compound 0.1 µM, first compound 0.000999 µM
  viability, T/C: 38.6%
Second compound 0.1 µM, first compound 0.00316 µM
  viability, T/C: 35.7%
Second compound 0.1 µM, first compound 0.00999 µM
  viability, T/C: 29.8%
[7]
  viability, T/C: 34.2%
Second compound 0.1 µM, first compound 0.0999 µM
  viability, T/C: 31.7%
[9]
  viability, T/C: 29.6%
Second compound 0.316 µM, first compound 0.000999 µM
  viability, T/C: 26.3%
Second compound 0.316 µM, first compound 0.00316 µM
  viability, T/C: 25.3%
Second compound 0.316 µM, first compound 0.00999 µM
  viability, T/C: 27.7%
[13]
  viability, T/C: 26.7%
Second compound 0.316 µM, first compound 0.0999 µM
  viability, T/C: 26.4%
[15]
  viability, T/C: 25.3%
Second compound 1 µM, first compound 0.000999 µM
  viability, T/C: 21.2%
Second compound 1 µM, first compound 0.00316 µM
  viability, T/C: 22.5%
Second compound 1 µM, first compound 0.00999 µM
  viability, T/C: 23.2%
[19]
  viability, T/C: 22.9%
Second compound 1 µM, first compound 0.0999 µM
  viability, T/C: 23.3%
[21]
  viability, T/C: 22%
Second compound 3.16 µM, first compound 0.000999 µM
  viability, T/C: 20.3%
Second compound 3.16 µM, first compound 0.00316 µM
  viability, T/C: 21%
Second compound 3.16 µM, first compound 0.00999 µM
  viability, T/C: 19.8%
[25]
  viability, T/C: 19.4%
Second compound 3.16 µM, first compound 0.0999 µM
  viability, T/C: 20.4%
[27]
  viability, T/C: 16.3%
Second compound 10 µM, first compound 0.000999 µM
  viability, T/C: 0.16%
Second compound 10 µM, first compound 0.00316 µM
  viability, T/C: 0.2%
Second compound 10 µM, first compound 0.00999 µM
  viability, T/C: 0.19%
[31]
  viability, T/C: 0.17%
Second compound 10 µM, first compound 0.0999 µM
  viability, T/C: 0.19%
[33]
  viability, T/C: 0.2%

## Nc1ccn(C2OC(CO)C(O)C2(F)F)c(=O)n1 (stereo unspecified) + Cc1[nH]c2ccc(F)cc2c1-c1nc2c3cccnc3c3ncccc3c2[nH]1
Second compound 0.0316 µM
  IC50: < 0.0316 µM
Second compound 0.1 µM
  IC50: < 0.0316 µM
Second compound 0.316 µM
  IC50: < 0.0316 µM
Second compound 1 µM
  IC50: < 0.0316 µM
Second compound 3.16 µM
  IC50: < 0.0316 µM
Second compound 10 µM
  IC50: < 0.0316 µM
[1]
  viability, T/C: 20.2%
[2]
  viability, T/C: 6.9%
[3]
  viability, T/C: 6.88%
[4]
  viability, T/C: 6.74%
[5]
  viability, T/C: 5.53%
[6]
  viability, T/C: 3.68%
[7]
  viability, T/C: 14.1%
[8]
  viability, T/C: 8.53%
[9]
  viability, T/C: 7.09%
[10]
  viability, T/C: 6.66%
[11]
  viability, T/C: 4.94%
[12]
  viability, T/C: 3.89%
[13]
  viability, T/C: 13.8%
[14]
  viability, T/C: 9.71%
[15]
  viability, T/C: 6.14%
[16]
  viability, T/C: 6.13%
[17]
  viability, T/C: 6.19%
[18]
  viability, T/C: 3.54%
[19]
  viability, T/C: 20.8%
[20]
  viability, T/C: 8.09%
[21]
  viability, T/C: 5.47%
[22]
  viability, T/C: 5.85%
[23]
  viability, T/C: 5.57%
[24]
  viability, T/C: 3.28%
[25]
  viability, T/C: 12.7%
[26]
  viability, T/C: 7.63%
[27]
  viability, T/C: 3.35%
[28]
  viability, T/C: 3.87%
[29]
  viability, T/C: 3.33%
[30]
  viability, T/C: 2.74%
[31]
  viability, T/C: 7.76%
[32]
  viability, T/C: 3.83%
[33]
  viability, T/C: 2.59%
[34]
  viability, T/C: 2.55%
[35]
  viability, T/C: 2.74%
[36]
  viability, T/C: 2.11%
